This is an account of results in patent US10537558B2 (Bantam Pharmaceutical, LLC, priority 2015, dated 2020).

Where only a bound is given, the exact number is not on record here.

For one experiment, the system named is BJAB cells. Description: BJAB cell proliferation (Cell Titer Glo). It counts as cell-based.
Details: not given
The procedure, abridged: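 EC50 values come from non-linear regression of luminescence (Cell Titer Glo), expressed relative to untreated wells. BJAB cells were incubated roughly 72 h at 37 °C with serial compound dilutions carrying 0.1% final DMSO.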
As to `Cc1nn(-c2nc(-c3ccc(Cl)c(Cl)c3)c(SC(C)C)s2)c(C(=O)O)c1-c1cccc(F)c1` [Compound 151, 1-(4-(3,4-dichlorophenyl)-5-(isopropylthio)thiazol-2-yl)-4-(3-fluorophenyl)-3-methyl-1H-pyrazole-5-carboxylic Acid], the EC50 entry is “A, B”.

Staying with this experiment, now noted: Homo sapiens, read-out: EC50.
In the case of `Cc1nn(-c2nc(-c3ccc(Cl)c(Cl)c3)c(SC(C)C)s2)c(C(=O)O)c1-c1cccc2cc[nH]c12` [Compound 127, 1-(4-(3,4-dichlorophenyl)-5-(isopropylthio)thiazol-2-yl)-4-(1H-indol-7-yl)-3-methyl-1H-pyrazole-5-carboxylic acid], the EC50 is 5 to 10 µM.

As for `Cc1nn(-c2nc(-c3ccc(Cl)c(Cl)c3)c(SC(C)C)s2)cc1-c1cccc2cc[nH]c12` [Compound 128, 2-(4-(1H-indol-7-yl)-3-methyl-1H-pyrazol-1-yl)-4-(3,4-dichlorophenyl)-5-(isopropylthio)thiazole], the half-maximal effective concentration (EC50) lay in the range of 10 to 25 µM. The same measure, in the same setting: the same measure for `CCn1cc(-c2c(C)nn(-c3nc(-c4ccc(Cl)c(Cl)c4)c(SC(C)C)s3)c2C(=O)O)cn1` [Compound 129, 2-(4-(3,4-dichlorophenyl)-5-(isopropylthio)thiazol-2-yl)-2′-ethyl-5-methyl-4,4′-bi(2H-pyrazole)-3-carboxylic Acid]: 5 to 10 µM; for `COCCNC(=O)c1c(-c2cccc(C)c2)c(C)nn1-c1nc(-c2ccc(Cl)c(Cl)c2)c(SC(C)C)s1` [Compound 130, 1-(4-(3,4-dichlorophenyl)-5-(isopropylthio)thiazol-2-yl)-N-(2-methoxyethyl)-3-methyl-4-m-tolyl-1H-pyrazole-5-carboxamide]: greater than 50 µM; for `Cc1ccccc1-c1c(C)nn(-c2nc(-c3ccc(Cl)c(Cl)c3)c(SC(C)C)s2)c1C(=O)N1CCC(CN)CC1` [Compound 131, (4-(aminomethyl)piperidin-1-yl)(1-(4-(3,4-dichlorophenyl)-5-(isopropylthio)thiazol-2-yl)-3-methyl-4-o-tolyl-1H-pyrazol-5-yl)methanone]: 1 to 5 µM. For the molecule `COc1cncc(-c2c(C)nn(-c3nc(-c4ccc(Cl)c(Cl)c4)c(SC(C)C)s3)c2C(=O)O)c1` [Compound 132, 1-(4-(3,4-dichlorophenyl)-5-(isopropylthio)thiazol-2-yl)-4-(5-methoxypyridin-3-yl)-3-methyl-1H-pyrazole-5-carboxylic acid], the 50% effective concentration (EC50) fell in the range of 10 to 25 µM.

Regarding `Cc1nn(-c2nc(-c3ccc(Cl)c(Cl)c3)c(SC(C)C)s2)c(C(=O)O)c1-c1cnn(CC(C)C)c1` [Compound 133, 2-(4-(3,4-dichlorophenyl)-5-(isopropylthio)thiazol-2-yl)-2′-isobutyl-5-methyl-4,4′-bi(2H-pyrazole)-3-carboxylic acid], the EC50 lay within 10 to 25 µM. The same measure, in the same setting: the same measure for `CNc1cc(-c2c(C)nn(-c3nc(-c4ccc(Cl)c(Cl)c4)c(SC(C)C)s3)c2C(=O)O)ccn1` [Compound 134, 1-(4-(3,4-dichlorophenyl)-5-(isopropylthio)thiazol-2-yl)-3-methyl-4-(2-(methylamino)pyridin-4-yl)-1H-pyrazole-5-carboxylic acid]: 10 to 25 µM. Still for that read-out and setting: the same measure for `Cc1nn(-c2nc(-c3ccc(Cl)c(Cl)c3)c(SC(C)C)s2)c(C(=O)O)c1-c1cnn(C(=O)N(C)C)c1` [Compound 135, 1-(4-(3,4-dichlorophenyl)-5-(isopropylthio)thiazol-2-yl)-1′-(dimethylcarbamoyl)-3-methyl-1H,1′H-[4,4′-bipyrazole]-5-carboxylic acid]: 25 to 50 µM; for `Cc1nn(-c2nc(-c3ccc(Cl)c(Cl)c3)c(SC(C)C)s2)c(C(=O)N2CCC(CN)CC2)c1-c1cc(C(F)(F)F)cc(C(F)(F)F)c1` [Compound 136, (4-(aminomethyl)piperidin-1-yl)(4-(3,5-bis(trifluoromethyl)phenyl)-1-(4-(3,4-dichlorophenyl)-5-(isopropylthio)thiazol-2-yl)-3-methyl-1H-pyrazol-5-yl)methanone]: 1 to 5 µM.

As to `Cc1nn(-c2nc(-c3ccc(Cl)c(Cl)c3)c(SC(C)C)s2)c(C(=O)N(C)CCN)c1-c1cc(C(F)(F)F)cc(C(F)(F)F)c1` [Compound 137, N-(2-aminoethyl)-4-(3,5-bis(trifluoromethyl)phenyl)-1-(4-(3,4-dichlorophenyl)-5-(isopropylthio)thiazol-2-yl)-N,3-dimethyl-1H-pyrazole-5-carboxamide], the EC50 fell in the range of 1 to 5 µM. The same measure, in the same setting: the same measure for `Cc1nn(-c2nc(-c3ccc(Cl)c(Cl)c3)c(SC(C)C)s2)c(C(=O)N2CC(N)C2)c1-c1cc(C(F)(F)F)cc(C(F)(F)F)c1` [Compound 138, (3-aminoazetidin-1-yl)(4-(3,5-bis(trifluoromethyl)phenyl)-1-(4-(3,4-dichlorophenyl)-5-(isopropylthio)thiazol-2-yl)-3-methyl-1H-pyrazol-5-yl)methanone]: 10 to 25 µM; for `Cc1nn(-c2nc(-c3ccc(Cl)c(Cl)c3)c(SC(C)C)s2)c(C(=O)N2CCOCC2)c1-c1cc(C(F)(F)F)cc(C(F)(F)F)c1` [Compound 139, (4-(3,5-bis(trifluoromethyl)phenyl)-1-(4-(3,4-dichlorophenyl)-5-(isopropylthio)thiazol-2-yl)-3-methyl-1H-pyrazol-5-yl)(morpholino)methanone]: 10 to 25 µM; for `Cc1nn(-c2nc(-c3ccc(Cl)c(Cl)c3)c(SC(C)C)s2)c(C(=O)N(C)C)c1-c1cc(C(F)(F)F)cc(C(F)(F)F)c1` [Compound 140, 4-(3,5-bis(trifluoromethyl)phenyl)-1-(4-(3,4-dichlorophenyl)-5-(isopropylthio)thiazol-2-yl)-N,N,3-trimethyl-1H-pyrazole-5-carboxamide]: greater than 40 µM. The same measure, in the same setting: the same measure for `Cc1nn(-c2nc(-c3ccc(Cl)c(Cl)c3)c(SC(C)C)s2)c(C(=O)N2CCC(CO)CC2)c1-c1cc(C(F)(F)F)cc(C(F)(F)F)c1` [Compound 141, (4-(3,5-bis(trifluoromethyl)phenyl)-1-(4-(3,4-dichlorophenyl)-5-(isopropylthio)thiazol-2-yl)-3-methyl-1H-pyrazol-5-yl)(4-(hydroxymethyl)piperidin-1-yl)methanone]: greater than 40 µM; for `Cc1nn(-c2nc(-c3ccc(Cl)c(Cl)c3)c(CC(C)C)s2)c(C(=O)O)c1-c1cnn(C)c1` [Compound 142, 1-(4-(3,4-dichlorophenyl)-5-isobutylthiazol-2-yl)-1′,3-dimethyl-1H,1′H-[4,4′-bipyrazole]-5-carboxylic Acid]: 1 to 5 µM; for `Cc1cc(C)cc(-c2c(C)nn(-c3nc(-c4ccc(Cl)c(Cl)c4)c(SC(C)C)s3)c2C(=O)O)c1` [Compound 143, 1-(4-(3,4-dichlorophenyl)-5-(isopropylthio)thiazol-2-yl)-4-(3,5-dimethylphenyl)-3-methyl-1H-pyrazole-5-carboxylic Acid]: 1 to 5 µM. Same read-out and setting: the value for `Cc1nn(-c2nc(-c3ccc(Cl)c(Cl)c3)c(SC(C)C)s2)c(C(=O)O)c1-c1cc(Cl)cc(Cl)c1` [Compound 144, 4-(3,5-dichlorophenyl)-1-(4-(3,4-dichlorophenyl)-5-(isopropylthio)thiazol-2-yl)-3-methyl-1H-pyrazole-5-carboxylic Acid] was less than 1 µM; that for `COc1cc(Cl)cc(-c2c(C)nn(-c3nc(-c4ccc(Cl)c(Cl)c4)c(SC(C)C)s3)c2C(=O)O)c1` [Compound 145, 4-(3-chloro-5-methoxyphenyl)-1-(4-(3,4-dichlorophenyl)-5-(isopropylthio)thiazol-2-yl)-3-methyl-1H-pyrazole-5-carboxylic Acid] was 1 to 5 µM.

With `COc1cc(-c2c(C)nn(-c3nc(-c4ccc(Cl)c(Cl)c4)c(SC(C)C)s3)c2C(=O)O)cc(C(F)(F)F)c1` [Compound 146, 1-(4-(3,4-dichlorophenyl)-5-(isopropylthio)thiazol-2-yl)-4-(3-methoxy-5-(trifluoromethyl)phenyl)-3-methyl-1H-pyrazole-5-carboxylic Acid], the EC50 lay within 1 to 5 µM. For `Cc1cc(Cl)cc(-c2c(C)nn(-c3nc(-c4ccc(Cl)c(Cl)c4)c(SC(C)C)s3)c2C(=O)O)c1` [Compound 147, 4-(3-chloro-5-methylphenyl)-1-(4-(3,4-dichlorophenyl)-5-(isopropylthio)thiazol-2-yl)-3-methyl-1H-pyrazole-5-carboxylic Acid], the half-maximal effective concentration (EC50) was less than 1 µM. Same read-out and setting: the value for `Cc1nn(-c2nc(-c3ccc(Cl)c(Cl)c3)c(SC(C)C)s2)c(C(=O)NS(C)(=O)=O)c1-c1cc(C(F)(F)F)cc(C(F)(F)F)c1` [Compound 148, 4-(3,5-bis(trifluoromethyl)phenyl)-1-(4-(3,4-dichlorophenyl)-5-(isopropylthio)thiazol-2-yl)-3-methyl-N-(methylsulfonyl)-1H-pyrazole-5-carboxamide] was greater than 40 µM; that for `Cc1nn(-c2nc(-c3ccc(Cl)c(Cl)c3)c(SC(C)C)s2)c(C(=O)O)c1-c1cnc2ccccn12` [Compound 149, 1-(4-(3,4-dichlorophenyl)-5-(isopropylthio)thiazol-2-yl)-4-(imidazo[1,2-a]pyridin-3-yl)-3-methyl-1H-pyrazole-5-carboxylic acid] was 5 to 10 µM; that for `Cc1nn(-c2nc(-c3ccc(Cl)c(Cl)c3)c(SC(C)C)s2)c(C(=O)O)c1-c1cc(O)cc(F)c1` [Compound 152, 1-(4-(3,4-dichlorophenyl)-5-(isopropylthio)thiazol-2-yl)-4-(3-fluoro-5-hydroxyphenyl)-3-methyl-1H-pyrazole-5-carboxylic Acid] was 5 to 10 µM. On to `Cc1cc(N)cc(-c2c(C)nn(-c3nc(-c4ccc(Cl)c(Cl)c4)c(SC(C)C)s3)c2C(=O)O)c1` [Compound 153, 4-(3-amino-5-methylphenyl)-1-(4-(3,4-dichlorophenyl)-5-(isopropylthio)thiazol-2-yl)-3-methyl-1H-pyrazole-5-carboxylic acid], for which the half-maximal effective concentration (EC50) was greater than 25 µM. Still for that read-out and setting: the value for `Cc1nn(-c2nc(-c3ccc(Cl)c(Cl)c3)c(SC(C)C)s2)c(C(=O)O)c1-c1cc(O)cc(Cl)c1` [Compound 154, 4-(3-chloro-5-hydroxyphenyl)-1-(4-(3,4-dichlorophenyl)-5-(isopropylthio)thiazol-2-yl)-3-methyl-1H-pyrazole-5-carboxylic Acid] was 10 to 25 µM.
